In PubChem BioAssay AID248 (DTP/NCI, 2004):
“And” between values parts separate entries of the source, which are not always exact repeats. Equal entries are not always repeated. Toxic doses and inconclusive results are not listed. No stated cut-off is given here; in the data, active means T/C of 150% or more; inactive means T/C below 125%.

Tested on: L1210 leukemia ip in BDF1 mice, survival T/C
Test: NCI In Vivo Anticancer Drug Screen. Data for tumor model L1210 Leukemia (intraperitoneal) in B6D2F1 (BDF1) mice
Settings: endpoint: mean survival time, higher = longer survival
Outline: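 Survival endpoint. Drug-treated group vs vehicle group, expressed as T divided by C. Tumor passaged by transplantation.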

[1] = dose: 50.0 mg/kg/injection, schedule: Q01DX001 (ip), vehicle: carboxymethylcellulose (CMC)
[2] = dose: 100.0 mg/kg/injection, schedule: Q01DX001 (ip), vehicle: carboxymethylcellulose (CMC)
[3] = dose: 200.0 mg/kg/injection, schedule: Q01DX001 (ip), vehicle: carboxymethylcellulose (CMC)
[4] = dose: 400.0 mg/kg/injection, schedule: Q01DX001 (ip), vehicle: carboxymethylcellulose (CMC)
[5] = dose: 75.0 mg/kg/injection, schedule: Q01DX001 (ip), vehicle: saline
[6] = dose: 150.0 mg/kg/injection, schedule: Q01DX001 (ip), vehicle: saline
[7] = dose: 100.0 mg/kg/injection, schedule: Q01DX009 (ip), vehicle: Klucel (hydroxypropylcellulose) (HPC)
[8] = dose: 100.0 mg/kg/injection, schedule: Q04DX002 (ip), vehicle: Klucel (hydroxypropylcellulose) (HPC)
[9] = dose: 200.0 mg/kg/injection, schedule: Q01DX009 (ip), vehicle: Klucel (hydroxypropylcellulose) (HPC)
[10] = dose: 400.0 mg/kg/injection, schedule: Q01DX009 (ip), vehicle: Klucel (hydroxypropylcellulose) (HPC)
[11] = dose: 400.0 mg/kg/injection, schedule: Q04DX002 (ip), vehicle: Klucel (hydroxypropylcellulose) (HPC)
[12] = dose: 100.0 mg/kg/injection, schedule: Q01DX001 (ip), vehicle: saline
[13] = dose: 400.0 mg/kg/injection, schedule: Q01DX001 (ip), vehicle: saline
[14] = dose: 100.0 mg/kg/injection, schedule: Q04DX003 (ip), vehicle: saline
[15] = dose: 200.0 mg/kg/injection, schedule: Q04DX003 (ip), vehicle: saline
[16] = dose: 400.0 mg/kg/injection, schedule: Q04DX003 (ip), vehicle: saline
[17] = dose: 200.0 mg/kg/injection, schedule: Q04DX002 (ip), vehicle: Klucel (hydroxypropylcellulose) (HPC)

Measured: T/C

COc1cc(C2c3cc4c(cc3C(O)C(CO)C2CO)OCO4)cc(OC)c1OC (stereo not drawn)
inactive: dose: 8.75 mg/kg/injection, schedule: Q01DX Z (ip), vehicle: carboxymethylcellulose (CMC) 100 % of control | dose: 11.5 mg/kg/injection, schedule: Q01DX Z (ip), vehicle: carboxymethylcellulose (CMC) 108 % of control | dose: 17.0 mg/kg/injection, schedule: Q01DX Z (ip), vehicle: carboxymethylcellulose (CMC) 113 % of control | dose: 17.5 mg/kg/injection, schedule: Q01DX Z (ip), vehicle: carboxymethylcellulose (CMC) 114 % of control | dose: 26.0 mg/kg/injection, schedule: Q01DX Z (ip), vehicle: carboxymethylcellulose (CMC) 120 % of control | dose: 35.0 mg/kg/injection, schedule: Q01DX Z (ip), vehicle: carboxymethylcellulose (CMC) 106 % of control | dose: 37.5 mg/kg/injection, schedule: Q04DX003 (ip), vehicle: saline 98 % of control | [1] 95 % of control | dose: 70.0 mg/kg/injection, schedule: Q01DX Z (ip), vehicle: carboxymethylcellulose (CMC) 98 % of control | dose: 75.0 mg/kg/injection, schedule: Q04DX003 (ip), vehicle: saline 118 % of control | [2] 104 % of control | dose: 140.0 mg/kg/injection, schedule: Q01DX Z (ip), vehicle: carboxymethylcellulose (CMC) 100 % of control and 121 % of control | dose: 150.0 mg/kg/injection, schedule: Q04DX003 (ip), vehicle: saline 110 % of control | [3] 101 % of control | dose: 280.0 mg/kg/injection, schedule: Q01DX Z (ip), vehicle: carboxymethylcellulose (CMC) 105 % of control | [4] 98 % of control

CC1C2CCC1(C)C(C=O)C2 (stereo not drawn)
inactive: [5] 93 % of control | [6] 88 % of control | dose: 300.0 mg/kg/injection, schedule: Q01DX001 (ip), vehicle: saline 88 % of control

CSc1ccc(NC(=O)C(Cl)Cl)cc1
inactive: [7] 95 % of control | [8] 97 % of control | [9] 105 % of control | [10] 101 % of control | [11] 93 % of control

COC(=O)C1=CO[C@@H](C)[C@@H]2Cn3ccc4c5ccccc5nc-4c3C[C@H]12
inactive: [12] 109 % of control | [13] 95 % of control

OCC1OC(n2cnc3c(NO)ncnc32)CC1O (stereo not drawn)
inactive: [1] 102 % of control | [2] 109 % of control | [3] 109 % of control | [4] 109 % of control

CCOC(=O)CSCCC1CC(=O)N1 (stereo not drawn)
inactive: dose: 100.0 mg/kg/injection, schedule: Q04DX003 (ip), vehicle: other 103 % of control | dose: 200.0 mg/kg/injection, schedule: Q04DX003 (ip), vehicle: other 104 % of control | dose: 400.0 mg/kg/injection, schedule: Q04DX003 (ip), vehicle: other 107 % of control

CCCN(CCC)CC(=O)N1CC(=O)Nc2ccccc21
inactive: dose: 25.0 mg/kg/injection, schedule: Q01DX009 (ip), vehicle: acetone 98 % of control | dose: 50.0 mg/kg/injection, schedule: Q01DX009 (ip), vehicle: acetone 96 % of control | dose: 100.0 mg/kg/injection, schedule: Q01DX009 (ip), vehicle: acetone 95 % of control | dose: 100.0 mg/kg/injection, schedule: Q04DX003 (ip), vehicle: acetone 103 % of control | dose: 200.0 mg/kg/injection, schedule: Q04DX003 (ip), vehicle: acetone 103 % of control

CCOC(C)(NCc1ccccc1)OCC
inactive: dose: 25.0 mg/kg/injection, schedule: Q04DX002 (ip), vehicle: Klucel (hydroxypropylcellulose) (HPC) 86 % of control | dose: 50.0 mg/kg/injection, schedule: Q04DX002 (ip), vehicle: Klucel (hydroxypropylcellulose) (HPC) 111 % of control

CCOc1ccc(=O)[nH]n1
inactive: dose: 100.0 mg/kg/injection, schedule: Q01DX009 (ip), vehicle: saline 93 % of control | [14] 105 % of control | dose: 200.0 mg/kg/injection, schedule: Q01DX009 (ip), vehicle: saline 93 % of control | [15] 101 % of control | dose: 400.0 mg/kg/injection, schedule: Q01DX009 (ip), vehicle: saline 95 % of control | [16] 115 % of control

CCCCCCCC(=O)Nc1ccc(C)c(C)c1
inactive: dose: 100.0 mg/kg/injection, schedule: Q04DX003 (ip), vehicle: saline with Tween-80 93 % of control | dose: 200.0 mg/kg/injection, schedule: Q04DX003 (ip), vehicle: saline with Tween-80 98 % of control | dose: 400.0 mg/kg/injection, schedule: Q04DX003 (ip), vehicle: saline with Tween-80 93 % of control

CC(=O)ON1C(=O)c2cccc3cccc(c23)C1=O
inactive: dose: 100.0 mg/kg/injection, schedule: Q04DX002 (ip), vehicle: saline with Tween-80 102 % of control | dose: 200.0 mg/kg/injection, schedule: Q04DX002 (ip), vehicle: saline with Tween-80 109 % of control

Cc1ccc(N2C(=O)CC(Sc3ccccc3N)C2=O)cc1 (stereo not drawn)
inactive: dose: 100.0 mg/kg/injection, schedule: Q01DX009 (ip), vehicle: other 114 % of control | [14] 86 % of control | dose: 200.0 mg/kg/injection, schedule: Q01DX009 (ip), vehicle: other 110 % of control | dose: 400.0 mg/kg/injection, schedule: Q01DX009 (ip), vehicle: other 93 % of control | [16] 86 % of control

CCCCCCC(C)NCCOC(=O)c1ccc(N)cc1 (stereo not drawn)
inactive: dose: 38.0 mg/kg/injection, schedule: Q04DX003 (ip), vehicle: other 104 % of control | dose: 75.0 mg/kg/injection, schedule: Q01DX001 (ip), vehicle: other 106 % of control and 98 % of control | [5] 96 % of control and 100 % of control | dose: 75.0 mg/kg/injection, schedule: Q04DX003 (ip), vehicle: other 104 % of control | dose: 150.0 mg/kg/injection, schedule: Q01DX001 (ip), vehicle: other 98 % of control and 93 % of control | [6] 91 % of control

CC(N)CC(C)(C)N (stereo not drawn)
inactive: dose: 50.0 mg/kg/injection, schedule: Q04DX003 (ip), vehicle: saline 90 % of control | [14] 91 % of control | [15] 90 % of control

Cc1ccc(NC(=O)Oc2ccccc2C(=O)OCc2ccccc2)cc1
inactive: [7] 101 % of control | [8] 88 % of control | [9] 106 % of control | [17] 88 % of control | [10] 101 % of control | [11] 107 % of control

COc1cccc(/C=N\NC(=O)CCCC(=O)N/N=C/c2cccc(OC)c2)c1
inactive: dose: 50.0 mg/kg/injection, schedule: Q01DX001 (ip), vehicle: saline 87 % of control | [12] 90 % of control | [13] 103 % of control

N#CN=C([S-])[S-].N#CN=C([S-])[S-].[Cu]
inactive: dose: 6.25 mg/kg/injection, schedule: Q01DX009 (ip), vehicle: saline 102 % of control | dose: 12.5 mg/kg/injection, schedule: Q01DX009 (ip), vehicle: saline 96 % of control | dose: 25.0 mg/kg/injection, schedule: Q01DX009 (ip), vehicle: saline 93 % of control

O=C(NCCCCCSC(=O)c1ccccc1)c1ccccc1
inactive: [8] 90 % of control | [17] 94 % of control | [11] 90 % of control

Cc1ccc2c(c1)c(C)c(C)c(=O)n2C
inactive: [12] 98 % of control | dose: 200.0 mg/kg/injection, schedule: Q01DX001 (ip), vehicle: saline 93 % of control | [13] 96 % of control

OCCCCc1ccccc1
inactive: dose: 100.0 mg/kg/injection, schedule: Q01DX001 (ip), vehicle: saline sonified 95 % of control | dose: 100.0 mg/kg/injection, schedule: Q01DX009 (ip), vehicle: saline sonified 104 % of control | dose: 200.0 mg/kg/injection, schedule: Q01DX001 (ip), vehicle: saline sonified 101 % of control | dose: 200.0 mg/kg/injection, schedule: Q01DX009 (ip), vehicle: saline sonified 97 % of control | dose: 400.0 mg/kg/injection, schedule: Q01DX001 (ip), vehicle: saline sonified 111 % of control
